In one assay the target is Human Axl (Homo sapiens (Human), UniProt P30530, Q764R). The assay is described as follows: Human AXL kinase assay (33P radiometric, KinaseProfiler). Type of assay: biochemical. The settings on record: 10 μM ATP. Here is the method:
(§1) Kinase activity and compound inhibition were investigated using the ^33P-Phosphoryl transfer radiometric kinase assay, performed using the KinaseProfiler™ service of Eurofins Pharma Discovery Services UK Limited. Dose-response experiments were performed using nine compound concentrations in a 96-well microtiter plate. For each assay, all compounds were prepared to a 50× final assay concentration (50 μM) in 100% DMSO, then diluted in a half-log series, with the final top concentration at 1 μM. This working stock of the compound was added to the assay well as the first component in the reaction, followed by the remaining components as detailed in the following assay protocols below. The positive control wells (100% kinase activity) contain all components of the reaction including 2% DMSO (control for solvent effects), except the compound of interest. Blank wells contain all components of the reaction, with the reference inhibitor, staurosporine. This reference compound was used to abolish kinase activity and generated the 0% kinase activity base-line. IC50 values were calculated by nonlinear regression analysis using the sigmoidal dose-response (variable slope) curve fit on XLFit version 5.3 (ID Business Solutions).
Human Axl (residues H473-A894 with Q764R, 161 nM) was incubated with 8 mM MOPS pH 7.0, 0.2 mM EDTA, 250 μM KKSRGDYMTMQIG (SEQ ID NO. 43), 10 mM magnesium acetate and 10 μM [γ-33P-ATP]. The reaction was initiated by the addition of the Mg/ATP mix. After incubation for 40 minutes at room temperature, the reaction was stopped by the addition of phosphoric acid to a concentration of 0.5%. A reaction aliquot of 10 μL was then spotted onto a P30 filtermat and washed four times for 4 minutes in 0.425% phosphoric acid and once in methanol prior to drying and scintillation counting. Incorporated ^33P was measured using the Wallac Microbeta scintillation counter (Perkin Elmer).

The target of the next assay is Mer (Homo sapiens (Human), UniProt Q12866). Briefly: Human Mer kinase assay (33P radiometric, KinaseProfiler). Type of assay: biochemical. To be noted: 10 μM ATP. The protocol:
as §1
Human Mer (residues R557-E882 with H628Q and R794A, 0.7 nM) was incubated with 8 mM MOPS pH 7.0, 0.2 mM EDTA, 30 mM NaCl, 250 μM GGMEDIYFEFMGGKKK (SEQ ID NO. 44), 10 mM magnesium acetate, and 10 μM [γ-33P-ATP]. The reaction was initiated by the addition of the Mg/ATP mix. After incubation for 40 minutes at room temperature, the reaction was stopped by the addition of phosphoric acid to a concentration of 0.5%. A reaction aliquot of 10 μL was then spotted onto a P30 filtermat and washed four times for 4 minutes in 0.425% phosphoric acid and once in methanol prior to drying and scintillation counting. Incorporated 33P was measured using the Wallac Microbeta scintillation counter (Perkin Elmer).

The target in assay [1] is T1, Met (Homo sapiens (Human), UniProt P08581). Briefly: Human Met kinase assay (33P radiometric, KinaseProfiler). Type of assay: biochemical. To be noted: 10 μM ATP, read-out: c-Met IC50. Here is the method:
as §1
Human Met (residues R974-S1390 with A1209G and V1290L, 3.4 nM) was incubated with 8 mM MOPS pH 7.0, 0.2 mM EDTA, 250 µM KKKGQEEEYVFIE (SEQ ID NO. 45), 1 mM sodium orthovanadate, 5 mM […], 10 mM magnesium acetate, and 10 μM [γ-33P-ATP]. The reaction was initiated by the addition of the Mg/ATP mix. After incubation for 40 minutes at room temperature, the reaction was stopped by the addition of phosphoric acid to a concentration of 0.5%. A reaction aliquot of 10 μL was then spotted onto a P30 filtermat and washed four times for 4 minutes in 0.425% phosphoric acid and once in methanol prior to drying and scintillation counting. Incorporated 33P was measured using the Wallac Microbeta scintillation counter (Perkin Elmer).

The target of another assay is AXL (Homo sapiens (Human), UniProt P30530). The assay is described as follows: AXL autophosphorylation ELISA in A-172 cells. Type of assay: cell-based. To be noted: cellular, Gas6-stimulated, phospho-AXL ELISA. The protocol: A-172 glioblastoma cells (ATCC #CRL-1620) were seeded at 2.5×10^5 cells/well onto 24-well plates (Greiner #662165), in DMEM (Thermo Fisher #11995-040) containing 10% FBS (Thermo Fisher #26140-079), 1% MEM NEAA (Thermo Fisher #11140-050), 1% GlutaMax (Thermo Fisher #35050-061), and 1% Penicillin Streptomycin (Thermo Fisher #15140-122). A-172 cells were incubated at 37° C., 5% CO2 for 24 h and then starved for 24 h in serum-free medium. Test compounds were serially diluted to produce an 8-point dose curve in fresh serum-free medium to a final concentration of 0.3% DMSO (vehicle) and added to the cells and incubated for 1 h. Cells were then stimulated with 1 μg/mL recombinant human Gas6 (R&D Systems #885-GSB-500) for 15 min, washed with cold PBS, and immediately lysed with 150 μL of cold IX lysis buffer [20 mM Tris, 137 mM sodium chloride, 2 mM EDTA, 10% glycerol, 1% NP-40 alternative, 1 mM activated sodium orthovanadate, 1 mM PefaBloc SC (Sigma-Aldrich #11429868001), protease/phosphatase inhibitor tablet (Thermo Fisher #A32959)]. Lysates were collected and 100 μL/well added into the human phospho-AXL Duo Set IC ELISA (R&D Systems #DYC2228-2). Assay was performed according to manufacturer's instructions and sample phospho-AXL concentrations were extrapolated using human phospho-AXL control (R&D Systems #841645) as a standard. Positive control wells (100% activity) contained Gas6-stimulated, DMSO-treated cell lysates. Negative control wells (0% activity) contained Gas6-stimulated, reference inhibitor-treated cell lysates. IC50 values were calculated by nonlinear regression analysis using a 4-parameter logistic curve fit in ActivityBase XL (IDBS).
AXL, sequence (P30530 26-894): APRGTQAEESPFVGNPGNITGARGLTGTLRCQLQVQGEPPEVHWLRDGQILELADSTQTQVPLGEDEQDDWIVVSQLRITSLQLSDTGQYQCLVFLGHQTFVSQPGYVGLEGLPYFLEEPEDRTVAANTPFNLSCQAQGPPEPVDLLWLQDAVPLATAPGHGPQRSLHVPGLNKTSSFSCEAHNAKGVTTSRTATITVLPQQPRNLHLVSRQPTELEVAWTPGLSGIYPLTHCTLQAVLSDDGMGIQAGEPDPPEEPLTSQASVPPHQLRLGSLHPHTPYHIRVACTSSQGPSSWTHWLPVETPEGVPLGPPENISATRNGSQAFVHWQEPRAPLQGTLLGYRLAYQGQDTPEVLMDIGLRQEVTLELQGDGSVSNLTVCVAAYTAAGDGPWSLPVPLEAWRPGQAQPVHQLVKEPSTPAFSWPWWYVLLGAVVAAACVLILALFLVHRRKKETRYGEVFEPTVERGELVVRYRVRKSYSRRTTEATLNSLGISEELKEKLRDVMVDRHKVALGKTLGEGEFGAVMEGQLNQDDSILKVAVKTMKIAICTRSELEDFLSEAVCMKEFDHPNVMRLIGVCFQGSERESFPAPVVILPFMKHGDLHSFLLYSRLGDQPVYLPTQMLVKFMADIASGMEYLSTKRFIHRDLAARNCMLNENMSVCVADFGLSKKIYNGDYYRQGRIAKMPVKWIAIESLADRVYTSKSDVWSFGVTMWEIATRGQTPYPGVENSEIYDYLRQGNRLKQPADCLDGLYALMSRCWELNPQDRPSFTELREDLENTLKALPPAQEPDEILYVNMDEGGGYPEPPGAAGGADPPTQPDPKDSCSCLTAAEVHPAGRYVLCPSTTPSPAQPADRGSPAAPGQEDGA
(In general: An ELISA detects its analyte on a solid surface through an enzyme-linked reagent.)

Assay [2] has as its target T1, Met. Briefly: Met autophosphorylation ELISA in PC-3 cells. Type of assay: cell-based. The settings on record: cellular, HGF-stimulated, phospho-Met ELISA, read-out: c-Met IC50. Here is the method: PC-3 prostate cancer cells (ATCC #CRL-1435) were seeded at 4×10^4 cells/well onto 24-well plates (Greiner #662165), in DMEM (Thermo Fisher #11995-040) containing 10% FBS (Thermo Fisher #26140-079), 1% MEM NEAA (Thermo Fisher #11140-050), 1% GlutaMax (Thermo Fisher #35050-061), and 1% Penicillin Streptomycin (Thermo Fisher #15140-122). PC-3 cells were incubated at 37° C., 5% CO2 for 24 h and then starved for 3 h in serum-free medium. Test compounds were serially diluted to produce an 8-point dose curve in fresh serum-free medium to a final concentration of 0.3% DMSO (vehicle) and added to the cells and incubated for 1 h. Cells were then stimulated with 100 ng/mL recombinant human HGF (R&D Systems #294-HG-250) for 10 min, washed with cold PBS, and immediately lysed with 130 μL of cold IX lysis buffer [20 mM Tris, 137 mM sodium chloride, 2 mM EDTA, 10% glycerol, 1% NP-40 alternative, 1 mM activated sodium orthovanadate, 1 mM PefaBloc SC (Sigma-Aldrich #11429868001), protease/phosphatase inhibitor tablet (Thermo Fisher #A32959)]. Lysates were clarified by centrifugation and 100 μL/well added into the PathScan phospho-Met (panTyr) Sandwich ELISA (Cell Signaling Technology #7333). Assay was performed according to manufacturer's instructions. Positive control wells (100% activity) contained HGF-stimulated, DMSO-treated cell lysates. Negative control wells (0% activity) contained HGF-stimulated, reference inhibitor-treated cell lysates. IC50 values were calculated by nonlinear regression analysis using a 4-parameter logistic curve fit in ActivityBase XL (IDBS).
Target sequence in this assay (P08581 25-1390): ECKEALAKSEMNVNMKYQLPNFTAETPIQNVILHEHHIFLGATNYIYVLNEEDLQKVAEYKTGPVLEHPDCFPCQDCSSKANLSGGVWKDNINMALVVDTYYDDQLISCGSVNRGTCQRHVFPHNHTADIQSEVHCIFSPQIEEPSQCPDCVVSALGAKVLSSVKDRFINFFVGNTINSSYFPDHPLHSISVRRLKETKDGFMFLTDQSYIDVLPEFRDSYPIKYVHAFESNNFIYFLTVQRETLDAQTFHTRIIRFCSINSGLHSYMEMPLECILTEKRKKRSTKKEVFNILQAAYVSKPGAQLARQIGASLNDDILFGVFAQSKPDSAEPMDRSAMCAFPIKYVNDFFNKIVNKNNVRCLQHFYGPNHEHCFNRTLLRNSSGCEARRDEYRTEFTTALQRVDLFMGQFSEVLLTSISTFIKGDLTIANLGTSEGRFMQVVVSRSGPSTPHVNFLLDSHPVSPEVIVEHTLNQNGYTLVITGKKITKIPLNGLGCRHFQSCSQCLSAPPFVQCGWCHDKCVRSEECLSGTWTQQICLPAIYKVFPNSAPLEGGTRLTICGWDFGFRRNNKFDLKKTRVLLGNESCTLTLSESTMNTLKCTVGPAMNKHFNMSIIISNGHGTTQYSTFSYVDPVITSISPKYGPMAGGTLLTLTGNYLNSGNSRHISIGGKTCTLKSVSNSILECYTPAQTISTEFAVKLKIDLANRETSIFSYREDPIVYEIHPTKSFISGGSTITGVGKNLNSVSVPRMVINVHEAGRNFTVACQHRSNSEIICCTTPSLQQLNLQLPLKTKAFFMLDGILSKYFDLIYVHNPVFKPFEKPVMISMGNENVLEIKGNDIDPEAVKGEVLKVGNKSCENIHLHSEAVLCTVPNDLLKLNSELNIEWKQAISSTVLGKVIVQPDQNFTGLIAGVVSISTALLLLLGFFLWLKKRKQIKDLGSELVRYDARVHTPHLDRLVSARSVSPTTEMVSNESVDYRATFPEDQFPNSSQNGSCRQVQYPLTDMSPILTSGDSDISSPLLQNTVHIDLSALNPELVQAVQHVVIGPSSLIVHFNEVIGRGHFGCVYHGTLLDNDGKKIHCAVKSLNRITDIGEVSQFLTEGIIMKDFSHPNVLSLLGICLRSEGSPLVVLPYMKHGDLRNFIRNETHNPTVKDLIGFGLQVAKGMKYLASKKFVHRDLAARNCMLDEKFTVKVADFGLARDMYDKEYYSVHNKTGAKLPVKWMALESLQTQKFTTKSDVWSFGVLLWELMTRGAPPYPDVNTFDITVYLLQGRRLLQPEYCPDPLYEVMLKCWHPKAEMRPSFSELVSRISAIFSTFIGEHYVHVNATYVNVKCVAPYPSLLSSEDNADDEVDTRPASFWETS

The target in a further assay is KDR (Homo sapiens (Human), UniProt P35968). The assay is described as follows: KDR autophosphorylation ELISA in HUVEC cells. The settings on record: cellular, VEGF165-stimulated, phospho-KDR ELISA. Type of assay: cell-based. Here is the method: Human umbilical vein endothelial cells or HUVEC (Lonza #C2519A) were seeded at 2×10^4 cells/well onto 96-well plates (Corning #3904), in EGM-2 growth medium (Lonza #CC-3162) containing 1% Penicillin Streptomycin (Thermo Fisher #15140-122). HUVEC cells were incubated at 37° C., 5% CO2 for 24 h and then starved for 24 h in serum-free EBM-2 basal medium (Lonza #CC-3156) containing 1% Penicillin Streptomycin. Test compounds were serially diluted to produce an 8-point dose curve in fresh serum-free medium to a final concentration of 0.3% DMSO (vehicle) and added to the cells and incubated for 1 h. Cells were then stimulated with 100 ng/mL recombinant human VEGF165 (R&D Systems #293-VE-500) for 5 min, washed with cold PBS, and immediately lysed with 130 μL of cold 1× lysis buffer [20 mM Tris, 137 mM sodium chloride, 2 mM EDTA, 10% glycerol, 1% NP-40 alternative, 1 mM activated sodium orthovanadate, 1 mM PefaBloc SC (Sigma-Aldrich #11429868001), protease/phosphatase inhibitor tablet (Thermo Fisher #A32959)]. Lysates were collected and 100 μL/well added into the human phospho-KDR Duo Set IC ELISA (R&D Systems #DYC 1766-2). Assay was performed according to manufacturer's instructions and sample phospho-KDR concentrations were extrapolated using human phospho-KDR control (R&D Systems #841421) as a standard. Positive control wells (100% activity) contained VEGF165-stimulated, DMSO-treated cell lysates. Negative control wells (0% activity) contained non-stimulated cell lysates. IC50 values were calculated by nonlinear regression analysis using a 4-parameter logistic curve fit in ActivityBase XE (IDBS).
KDR, sequence (P35968 20-1356): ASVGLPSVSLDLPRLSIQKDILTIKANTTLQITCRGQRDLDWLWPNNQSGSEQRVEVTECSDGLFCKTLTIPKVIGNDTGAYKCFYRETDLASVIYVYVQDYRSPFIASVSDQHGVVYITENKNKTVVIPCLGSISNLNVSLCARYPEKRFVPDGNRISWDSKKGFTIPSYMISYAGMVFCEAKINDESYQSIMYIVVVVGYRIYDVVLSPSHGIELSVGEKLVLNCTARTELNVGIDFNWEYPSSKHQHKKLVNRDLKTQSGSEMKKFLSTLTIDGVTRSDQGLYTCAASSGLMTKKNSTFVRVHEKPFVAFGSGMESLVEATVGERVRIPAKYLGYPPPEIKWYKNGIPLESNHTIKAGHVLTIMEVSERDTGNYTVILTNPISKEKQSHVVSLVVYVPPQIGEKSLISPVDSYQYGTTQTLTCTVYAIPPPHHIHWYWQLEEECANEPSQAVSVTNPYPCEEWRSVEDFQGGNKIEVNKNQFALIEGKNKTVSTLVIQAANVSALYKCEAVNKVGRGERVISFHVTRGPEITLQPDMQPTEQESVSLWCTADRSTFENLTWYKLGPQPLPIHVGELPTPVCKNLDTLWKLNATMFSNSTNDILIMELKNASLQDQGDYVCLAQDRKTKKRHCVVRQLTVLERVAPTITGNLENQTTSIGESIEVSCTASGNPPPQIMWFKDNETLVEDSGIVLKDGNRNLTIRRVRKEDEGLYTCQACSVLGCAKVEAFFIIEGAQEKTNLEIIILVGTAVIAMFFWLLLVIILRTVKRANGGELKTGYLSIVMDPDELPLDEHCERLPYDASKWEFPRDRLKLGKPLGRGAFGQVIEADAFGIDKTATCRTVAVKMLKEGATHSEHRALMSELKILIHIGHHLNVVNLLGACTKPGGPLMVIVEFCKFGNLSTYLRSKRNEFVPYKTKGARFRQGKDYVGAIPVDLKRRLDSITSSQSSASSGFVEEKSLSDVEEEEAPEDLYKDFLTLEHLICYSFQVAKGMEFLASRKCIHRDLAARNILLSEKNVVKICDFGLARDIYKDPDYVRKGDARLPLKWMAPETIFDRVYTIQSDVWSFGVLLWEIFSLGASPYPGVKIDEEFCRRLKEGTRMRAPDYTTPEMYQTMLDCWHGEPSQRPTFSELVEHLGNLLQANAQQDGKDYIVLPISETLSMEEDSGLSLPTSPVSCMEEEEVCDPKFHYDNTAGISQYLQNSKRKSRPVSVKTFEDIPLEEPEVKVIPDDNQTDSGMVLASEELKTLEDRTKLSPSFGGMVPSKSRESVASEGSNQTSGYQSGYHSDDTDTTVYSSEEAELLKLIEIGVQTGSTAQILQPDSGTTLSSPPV

Human Axl, sequence (P30530 473-894 Q764R): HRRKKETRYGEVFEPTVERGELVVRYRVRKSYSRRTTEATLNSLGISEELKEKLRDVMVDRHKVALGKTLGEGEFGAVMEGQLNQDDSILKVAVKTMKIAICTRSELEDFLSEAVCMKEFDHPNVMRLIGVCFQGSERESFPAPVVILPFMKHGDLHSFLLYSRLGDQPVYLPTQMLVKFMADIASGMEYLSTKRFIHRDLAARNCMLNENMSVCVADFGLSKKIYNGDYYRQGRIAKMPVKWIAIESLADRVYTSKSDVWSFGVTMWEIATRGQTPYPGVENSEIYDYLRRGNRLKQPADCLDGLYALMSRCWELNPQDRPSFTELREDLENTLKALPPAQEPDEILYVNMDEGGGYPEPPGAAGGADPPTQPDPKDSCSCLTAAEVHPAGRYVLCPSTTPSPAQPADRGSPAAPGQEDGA
Mer, sequence (Q12866 557-882): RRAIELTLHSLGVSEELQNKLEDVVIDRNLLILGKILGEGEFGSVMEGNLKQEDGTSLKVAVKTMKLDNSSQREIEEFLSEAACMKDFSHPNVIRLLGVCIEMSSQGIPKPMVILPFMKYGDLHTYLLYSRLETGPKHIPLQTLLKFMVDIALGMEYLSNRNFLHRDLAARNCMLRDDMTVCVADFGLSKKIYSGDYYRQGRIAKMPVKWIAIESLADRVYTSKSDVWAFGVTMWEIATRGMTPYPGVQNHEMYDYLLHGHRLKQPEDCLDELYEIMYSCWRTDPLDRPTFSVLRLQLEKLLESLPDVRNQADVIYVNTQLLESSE

In general, IC50 refers to the midpoint of a concentration-inhibition curve. Consider `O=C(Nc1ccc(F)cc1)C1(C(=O)Nc2ccc(Oc3ncnc4cccnc34)cc2)CC1` [Compound 7, 1-N′-(4-fluorophenyl)-1-N-(4-pyrido[3,2-d]pyrimidin-4-yloxyphenyl)cyclopropane-1,1-dicarboxamide], for which the concentration for half-maximal inhibition (IC50) against Human Axl was more than 1000 nM; against Mer it was more than 1000 nM; at Met [1], 100 to 1000 nM.
Consider `COc1cc2nccc(Oc3ccc(NC(=O)C4(C(=O)Nc5ccc(F)cc5)CC4)cc3F)c2nc1C(N)=O` [Compound 168, 1-N′-[4-[(6-carbamoyl-7-methoxy-1,5-naphthyridin-4-yl)oxy]-3-fluoro-phenyl]-1-N-(4-fluorophenyl)cyclopropane-1,1-dicarboxamide], for which the IC50 on AXL is more than 300 nM; on Met [2], 100 to 300 nM; against KDR, more than 300 nM.
As for `COc1cc2nccc(Oc3ccc(NC(=O)C4(C(=O)Nc5ccc(F)cc5)CC4)cc3Cl)c2nc1C(N)=O` [Compound 169, 1-N′-[4-[(6-carbamoyl-7-methoxy-1,5-naphthyridin-4-yl)oxy]-3-chlorophenyl]-1-N-(4-fluorophenyl)cyclo-propane-1,1-dicarboxamide], the concentration for half-maximal inhibition (IC50) on AXL, at Met [2] and on KDR was 10 to 100 nM throughout.
On to `CNC(=O)c1nc2c(Oc3ccc(NC(=O)C4(C(=O)Nc5ccc(F)cc5)CC4)cc3)ccnc2cc1OC` [Compound 172, 1-N′-(4-fluorophenyl)-1-N-[4-[[7-methoxy-6-(methyl-carbamoyl)-1,5-naphthyridin-4-yl]oxy]phenyl]cyclo-propane-1,1-dicarboxamide], for which the IC50 was 100 to 300 nM against AXL, more than 300 nM on Met [2] and more than 300 nM on KDR.
Turning to `CNC(=O)c1nc2c(Oc3ccc(NC(=O)C4(C(=O)Nc5ccc(F)cc5)CC4)cc3F)ccnc2cc1OC` [Compound 173, 1-N′-[3-fluoro-4-[[7-methoxy-6-(methylcarbamoyl)-1,5-naphthyridin-4-- yl]oxy]phenyl]-1-N-(4-fluoro-phenyl)cyclopropane-1,1-dicarboxamide], the IC50 against AXL, on Met [2] and against KDR was 100 to 300 nM throughout.
On to `COc1cc2nccc(Oc3ccc(NC(=O)C4(C(=O)Nc5ccc(F)cc5)CC4)cc3)c2nc1C(=O)N(C)C` [Compound 174, 1-N-[4-[[6-(dimethyl-carbamoyl)-7-methoxy-1,5-naphthyridin-4-yl]oxy]phenyl]-1-N′-(4-fluorophenyl)cyclopropane-1,1-dicarboxamide], for which the IC50 was more than 300 nM at AXL, 100 to 300 nM at Met [2] and more than 300 nM at KDR.
For `COc1cnc2c(Oc3cc(F)c(NC(=O)C4(C(=O)Nc5ccc(F)cc5)CC4)cc3F)ccnc2c1` [Compound 176, 1-N′-[2,5-difluoro-4-[(7-methoxy-1,5-naphthyridin-4-yl)oxy]phenyl]-1-N-(4-fluorophenyl)cyclopropane-1,1-dicarboxamide], the IC50 against AXL is not above 10 nM; at Met [2], 10 to 100 nM; against KDR it was 100 to 300 nM.
For `COc1cc2nccc(Oc3ccc(NC(=O)C4(C(=O)Nc5ccc(F)cc5)CC4)cc3)c2nc1-c1cn[nH]c1` [Compound 183, 1-N′-(4-fluorophenyl)-1-N-[4-[[7-methoxy-6-(1H-pyrazol-4-yl)-1,5-naphthyridin-4-yl]oxy]phenyl]cyclopropane-1,1-dicarboxamide], the IC50 against AXL, at Met [2] and on KDR was more than 300 nM each time.
As to `COc1cc2nccc(Oc3ccc(NC(=O)C4(C(=O)Nc5ccc(F)cc5)CC4)cc3)c2nc1-c1ccnn1C` [Compound 184, 1-N′-(4-fluorophenyl)-1-N-[4-[[7-methoxy-6-(2-methyl-pyrazol-3-yl)-1,5-naphthyridin-4-yl]oxy]phenyl]cyclo-propane-1,1-dicarboxamide], the IC50 at AXL, at Met [2] and on KDR was more than 300 nM each time.

Values taken from patent publication US11708367B2, “Compounds for the treatment of kinase-dependent disorders” (Exelixis, Inc., priority 2018, dated 2023).
